What all share (test): NCI tumour cell line growth inhibition, 48 h
Assay [1] relates to OVCAR-3 ovarian.
In assay [2] the test system is SK-MEL-5 melanoma.
In assay [3] the test system is HOP-62 NSCLC.
In assay [4] the test system is MOLT-4 leukemia.
In assay [5] the test system is UACC-257 melanoma.
The subject of assay [6] is SNB-19 CNS.
In assay [7] the test system is RXF 393 renal.
Assay [8] concerns M14 melanoma.
For assay [9], the system named is RPMI-8226 leukemia.
Assay [10] deals with DU-145 prostate.

Where “and” joins values, the source holds several entries; their conditions need not be identical. Equal values may be shown once.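 Each compound was tested at five concentrations against cells in 96-well plates for 48 hours. GI50: concentration for 50% inhibition of growth. TGI: total growth inhibition.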 A value given as a limit tells only on which side of the number the result lay.

Turning to `CC1(C)O[C@H]2OC3CCC(=O)CC3(O)[C@H]2O1` (some centres not stated), the TGI in assay [1], in assay [2], in [3], in assay [4], in assay [5] and in assay [6] was greater than 100 µM in each case. The TGI in assay [7], in assay [8], in assay [9] and in assay [10] was greater than 100 µM in each case.

Turning to `COc1ccc(Cl)cc1Nc1nc(C(F)(F)F)ccc1C(=O)NN`, the GI50 was 0.615 µM in assay [1]; 5.8 µM in assay [2]; 5.78 µM in assay [3]; 2.53 µM in [4]; 3.87 µM in assay [5]; 8.93 µM in assay [6]. In addition, the GI50 in assay [7] was 1.68 µM; in assay [8], 2.38 µM; in assay [9], 1.91 µM; in assay [10] it was 2.42 µM. Besides, the TGI in assay [1] is greater than 24.5 µM; in assay [2], greater than 20.4 µM; in assay [3] it was greater than 75.4 µM; in [4], greater than 24.3 µM; in assay [5], greater than 30.2 µM; in [6] it was greater than 100 µM. Further, the TGI in [7] is greater than 21.4 µM; in assay [8], 13 µM; in [9] it was 13.3 µM; in assay [10], greater than 20.2 µM.

For `CNC(=O)Nc1ccc(-c2nc(N3CCOCC3)nc3c2cnn3C2CCOCC2)cc1`, the GI50 in assay [1] was 0.21 µM; in assay [2] it was 0.208 µM; in [3], 0.23 µM; in assay [4], 0.355 µM; in [5], 0.184 µM; in assay [6], 0.396 µM. Also, the GI50 in assay [7] was 0.14 µM; in assay [8], 0.233 µM; in assay [9], 0.205 µM; in assay [10] it was 0.288 µM. Besides, the TGI in assay [2] is 1.22 µM; in assay [3] it was 4.38 µM; in assay [4], greater than 26.8 µM; in [5], 1.4 µM; in [6] it was greater than 100 µM; in assay [7], 0.812 µM. This molecule also showed a TGI in assay [10] greater than 100 µM.

Turning to `Clc1ccc(COC(Cn2ccnc2)c2ccc(Cl)cc2Cl)cc1` (configuration not stated), the GI50 in assay [1] was 2.5 µM; in [2], 1.74 µM and 17.2 µM and 4.83 µM; in assay [3], 3.02 µM; in assay [4] it was 2.03 µM; in assay [5] it was 2.63 µM; in assay [6] it was 3.35 µM. The GI50 in assay [7] is 2.01 µM; in [8] it was 2.92 µM; in [9], 1.9 µM; in [10] it was 5.41 µM. Moreover, the TGI in assay [1] was 6.49 µM and 23.2 µM and 25.1 µM; in [2], 3.64 µM and 31 µM and 18.9 µM; in assay [3], 13.6 µM and 26.8 µM and 35.6 µM; in [4], 5.89 µM and 20.7 µM and 18.1 µM; in assay [5] it was 9.14 µM and 27.7 µM and 22.5 µM; in [6] it was 17.9 µM and 32.3 µM and 30.5 µM. Moreover, the TGI in [7] was 6.78 µM and 31.7 µM and 29.1 µM; in [8], 10.2 µM and 29.8 µM and 26.2 µM; in assay [9], 6.82 µM and 32.3 µM and 23.2 µM; in assay [10], 17.8 µM and 30.1 µM and 28.2 µM.

In the case of `CC(C)n1c(/C=C/[C@@H](O)C[C@@H](O)CC(=O)O)c(-c2ccc(F)cc2)c2ccccc21`, the GI50 was 12.2 µM and 15 µM in assay [1]; 3.94 µM and 4.9 µM in [2]; 11.4 µM and 13 µM in [3]; 16.4 µM and 21.9 µM in [4]; 52.7 µM and 47.5 µM in assay [5]; 4.23 µM and 1.32 µM in assay [6]. Further, the GI50 in assay [7] is 3.54 µM and 2.12 µM; in [8], 19.4 µM and 11.9 µM; in [9], 5.55 µM and 10.3 µM; in assay [10], 24.8 µM and 26.4 µM. For the same molecule, the TGI in [1] is 46.7 µM and > 100 µM; in assay [2] it was 35.4 µM and 27 µM; in [3], greater than 100 µM; in [4] it was 67.5 µM and > 100 µM; in [5], greater than 100 µM; in assay [6] it was greater than 100 µM. The TGI in assay [7] was > 100 µM and 18.9 µM; in assay [8], greater than 100 µM; in [9], greater than 100 µM; in assay [10], greater than 100 µM.

Turning to `COC(=O)c1ccc2c(c1)C(NC(C)=O)CCc1cc(OC)c(OC)c(OC)c1-2` (configuration not stated), the TGI in assay [1] is 1.23 µM; in assay [2] it was 0.216 µM; in assay [3], 52.4 µM; in assay [4], 51.6 µM; in assay [5], greater than 100 µM; in [6] it was greater than 86.9 µM. The TGI was 6.65 µM in [7], greater than 31.6 µM in assay [8], greater than 100 µM in assay [9] and 0.0865 µM in [10].

These data come from PubChem BioAssay (NCI).
